Measured values taken from patent US20020061514A1, “Assay for identifying modulators of chondrogenesis” (priority 2000, published 2002).
Each block holds one molecule with its values, some of them ahead of it.

Key:
Assay type in all cases: cell-based, mouse
limb mesenchymal cells = experiment: Alcian blue staining of cartilage nodules in primary limb mesenchymal cultures; details: 10 ng/ml, 2 and 4 days, vs untreated cultures
Procedure: (§1) Limb mesenchymal cells were harvested from embryonic age 11.25-11.75 mouse embryos as previously described (19). To establish proximal or distal cultures the proximal half of each limb bud was separated from the distal half, and each pool of limb fragments was processed separately. The cells were resuspended at a density of 1.5−2×10^7 cells/ml. For transfection purposes, cells were mixed with a DNA/FuGene6 mixture in a 2:1 ratio. FuGene6-DNA mixtures were prepared according to the manufacturer's instructions (Roche Biomolecular). Briefly, 1 μg of reporter, 1 μg of expression vector and 0.05 μg of pRLSV40 (Promega) were mixed for a total of ˜2 μg DNA in 100 μl of media and FuGene6. Fifty microlitres of the DNA mixture was transferred into a sterile 1.5 ml eppendorf tube, followed by 100 μl of cells. Cells were gently triturated and 10 μl was used to seed a single well of a 24-well culture dish. After 1.5 hrs in a humidified CO2 incubator, 1 ml of media containing compounds of interest was added to each well and was subsequently replaced 24 hrs following transfection.

[1] = tested on: pGL3(4X48) Sox9 responsive reporter gene; experiment: pGL3(4X48) luciferase reporter gene activity in transiently transfected primary limb mesenchymal cultures; details: for normalized RLU (pGL3(4X48) reporter gene activity): RLU values normalized to control reporter activity
Text: (§2) To increase reporter gene sensitivity, the Sox9 responsive reporter gene from 4X48-p89 luciferase (14) was subcloned into pGL3-basic (Promega). A fragment containing the reiterated (4 X 48) Sox9 binding sequence upstream of the mouse col II minimal promoter (−89 to +13) was liberated from 4X48-p89 plasmid by digestion with Bam HI and Hind III. This fragment was subcloned into the Bgl II and […] sites of pGL3-basic (Promega) to generate pGL3(4X48). To generate an EGFP-based col II reporter, the luciferase gene within pGL3(4X48) was replaced with EGFP-N1 (Clontech). For expression of genes in primary cultures a modified version of pSG5 (Stratagene), pSG5HS, was used which contains two additional restriction endonuclease sites, Hind III and Spe I. The myogenin promoter-luciferase construct was made by subcloning a 1.14 kB fragment of the myogenin promoter (containing the region from pGZ1092) from plasmid pGBB into pGL3-basic. The cardiac actin promoter-luciferase vector was generated by subcloning a fragment of the cardiac actin promoter from −440 to +6 into pGL3-basic.
as §1
Analysis of reporter gene activity using the Dual Luciferase Assay System was done following the manufacturer's instructions (Promega). Briefly, ˜48 hrs post-transfection, cells were washed once with PBS and lysed in 100 μl of Passive Lysis Buffer for 20 min. Firefly and renilla luciferase activities were determined using 40 μl of lysate in a 96-well plate reading luminometer (Molecular Devices).

[2] = tested on: pGL3-4X48-EGFP reporter (Sox9 activity); experiment: pGL3(4X48)-EGFP reporter in primary limb mesenchymal cultures; details: 10 ng/ml, 64 hours post-transfection, vs untreated control cultures
Text: as §2
Limb mesenchymal cells were harvested from embryonic age 11.25-11.75 mouse embryos as previously described (19). To establish proximal or distal cultures the proximal half of each limb bud was separated from the distal half, and each pool of limb fragments was processed separately. […]

normalized RLU (pGL3(4X48) reporter gene activity) ([1]; protein added at 10 ng/ml): 4.2 | increase in reporter gene activity ([1]; treatment of reporter gene-transfected cells, 10 ng/ml (FIG. 3H)): ~4.5 fold
Molecule: BMP-4: bone morphogenetic protein added to cultures at 10 ng/ml
cartilage nodule number (alcian blue) (limb mesenchymal cells): dramatic increase in nodule number | number of EGFP-expressing (fluorescing) cells [2]: enhanced

normalized RLU (pGL3(4X48) reporter gene activity) ([1]; co-transfected expression construct): 0.5
Molecule: Wnt3a

normalized RLU (pGL3(4X48) reporter gene activity) ([1]; protein added at 100 ng/ml): 0.3
B1: Noggin: BMP pathway protein added at 100 ng/ml (protein, UniProt Q13253 28-232, looked up)
Noggin: QHYLHIRPAPSDNLPLVDLIEHPDPIFDPKEKDLNETLLRSLLGGHYDPGFMATSPPEDRPGGGGGAAGGAEDLAELDQLLRQRPSGAMPSEIKGLEFSEGLAQGKKQRLSKKLRRKLQMWLWSQTFCPVLYAWNDLGSRFWPRYVKVGSCFSKRSCSVPEGMVCKPSKSVHLTVLRWRCQRRGGQRCGWIPIQYPIISECKCSC
